The source of these data is patent US7410975B2, “Small molecule toll-like receptor (TLR) antagonists” (Coley Pharmaceutical Group, Inc., priority 2003, dated 2008).

Counter-ions that a name gives are not always drawn.

The first assay addresses T1, human TLR9 (hTLR9) (Homo sapiens, UniProt Q9NR96).
T1 construct: expressed in transfected cells
T1 sequence (Q9NR96 26-1032): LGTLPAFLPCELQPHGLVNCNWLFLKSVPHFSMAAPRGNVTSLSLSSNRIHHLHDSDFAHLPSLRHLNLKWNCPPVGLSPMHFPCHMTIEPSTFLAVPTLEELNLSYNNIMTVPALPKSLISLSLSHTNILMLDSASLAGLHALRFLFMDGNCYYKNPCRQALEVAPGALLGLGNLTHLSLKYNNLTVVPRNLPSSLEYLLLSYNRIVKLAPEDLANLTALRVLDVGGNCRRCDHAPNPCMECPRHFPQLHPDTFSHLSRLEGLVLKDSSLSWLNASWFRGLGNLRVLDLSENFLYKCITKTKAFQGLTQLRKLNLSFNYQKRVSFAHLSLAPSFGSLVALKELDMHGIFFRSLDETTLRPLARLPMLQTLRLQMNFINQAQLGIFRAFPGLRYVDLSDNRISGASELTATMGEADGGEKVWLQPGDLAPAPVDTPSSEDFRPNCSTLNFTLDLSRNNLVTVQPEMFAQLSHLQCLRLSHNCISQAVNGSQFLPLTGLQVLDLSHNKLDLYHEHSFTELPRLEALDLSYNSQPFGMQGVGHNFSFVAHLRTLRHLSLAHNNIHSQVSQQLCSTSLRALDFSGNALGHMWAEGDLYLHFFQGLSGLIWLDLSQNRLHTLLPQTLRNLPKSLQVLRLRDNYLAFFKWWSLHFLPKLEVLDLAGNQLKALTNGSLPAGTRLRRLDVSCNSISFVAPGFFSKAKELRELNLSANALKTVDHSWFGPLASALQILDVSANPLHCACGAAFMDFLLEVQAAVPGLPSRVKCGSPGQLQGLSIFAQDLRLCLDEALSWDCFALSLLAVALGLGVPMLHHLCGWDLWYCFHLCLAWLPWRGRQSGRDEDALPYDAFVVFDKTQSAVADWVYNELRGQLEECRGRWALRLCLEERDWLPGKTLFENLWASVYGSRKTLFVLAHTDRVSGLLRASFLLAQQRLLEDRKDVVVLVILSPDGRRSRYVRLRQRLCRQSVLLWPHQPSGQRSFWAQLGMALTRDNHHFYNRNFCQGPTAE
Nature of the assay: Antagonist screen, hTLR9-NFκB-293 cells, 6× NF-κB-luciferase reporter, with EC50 of CpG ODN 2006. The class given is cell-based. The conditions noted are these: compound at 0.5, 5, 50 μg/ml; EC50 concentration of CpG ODN 2006; 16 h; NF-κB-luciferase. In outline:
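Luciferase fold induction was compared with the ligand-alone baseline, and antagonism was scored by the lowest concentration giving clear down-regulation.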
Regarding `CN1CCc2cccc3c2[C@H]1Cc1ccc(O)c(O)c1-3.Cl` [compound 101, Apomorphinehydrochloride (R, —)], the “hTLR9 (inhibitory effect, antagonist score)” value is 12 (compounds for which there was clear down regulation at 5 μg/ml and 50 μg/ml).

For `CC(C)(C)c1ccc(C(O)CCCN2CCC(C(O)(c3ccccc3)c3ccccc3)CC2)cc1` (stereo not shown) [compound 138, Terfenadine], the “hTLR9 (inhibitory effect, antagonist score)” value was 12 (compounds for which there was clear down regulation at 5 μg/ml and 50 μg/ml).

As to `CN(C)C(=O)C(CCN1CCC(O)(c2ccc(Cl)cc2)CC1)(c1ccccc1)c1ccccc1` [compound 144, Loperamidehydrochloride], the “hTLR9 (inhibitory effect, antagonist score)” value is 12 (compounds for which there was clear down regulation at 5 μg/ml and 50 μg/ml).

As for `COc1cc2c(cc1O)C[C@H]1c3c(cc(O)c(OC)c3-2)CCN1C` [compound 600, Boldine], the “hTLR9 (inhibitory effect, antagonist score)” value was 12 (compounds for which there was clear down regulation at 5 μg/ml and 50 μg/ml).

Take `CN1CCc2cc3c(c4c2C1Cc1ccccc1-4)OCO3.Cl` (stereo not shown) [compound 669, Remerine hydrochloride]: the “hTLR9 (inhibitory effect, antagonist score)” value is recorded as “— (compounds for which there was no clear down regulation even at 50 μg/ml)”.

Regarding `COc1cc2nc(N3CCN(C(=O)C4CCCO4)CC3)nc(N)c2cc1OC.Cl` (stereo not shown) [compound 751, Terazosin hydrochloride], the “hTLR9 (inhibitory effect, antagonist score)” value is 13 (compounds for which there was clear down regulation at 0.5 μg/ml, 5 μg/ml, and 50 μg/ml).

In the case of `COc1cc2nc(N3CCN(C(=O)C4COc5ccccc5O4)CC3)nc(N)c2cc1OC.CS(=O)(=O)O` (stereo not shown) [compound 858, Doxazosin mesylate], the “hTLR9 (inhibitory effect, antagonist score)” value was 13 (compounds for which there was clear down regulation at 0.5 μg/ml, 5 μg/ml, and 50 μg/ml).

With `CCN(CC)CCCC(C)Nc1nc(/C=C/c2ccc(Cl)cc2)nc2cc3ccccc3cc12` (stereo not shown) [compound 2000], the “hTLR9 (inhibitory effect, antagonist score)” value was 13 (compounds for which there was clear down regulation at 0.5 μg/ml, 5 μg/ml, and 50 μg/ml).

As to `CCN(CC)CCCNc1nc(-c2ccccc2)nc2ccccc12` [compound 2001], the “hTLR9 (inhibitory effect, antagonist score)” value is 13 (compounds for which there was clear down regulation at 0.5 μg/ml, 5 μg/ml, and 50 μg/ml).

Still in this assay, the particulars now being: hTLR9-NFκB-293 cells, with EC50 of CpG ODN 2006; compound at 0.5, 5 and 50 μg/ml.
As to `COc1cc2cc3c4cc(OC)c(OC)cc4cc[n+]3c(C)c2cc1OC` [compound 431, Coralyne chloridehydrate], the “hTLR9 (inhibitory effect)” value is 13 (compounds for which there was clear down regulation at 0.5 μg/ml, 5 μg/ml, and 50 μg/ml).

In the case of `COc1ccc(Cc2nccc3cc(OC)c(OC)cc23)cc1OC.Cl` [compound 583, Papaverinehydrochloride], the “hTLR9 (inhibitory effect)” value is 12 (compounds for which there was clear down regulation at 5 μg/ml and 50 μg/ml).

For `COc1ccc2cc3[n+](cc2c1OC)CCc1cc2c(cc1-3)OCO2.[Cl-]` [compound 586, Berberine chloride], the “hTLR9 (inhibitory effect)” value is “— (compounds for which there was no clear down regulation even at 50 μg/ml)”.

Take `CC[N+](C)(CC)CCC[n+]1c(-c2ccccc2)c2cc(N)ccc2c2ccc(N)cc21.[I-].[I-]` [compound 792, Propidium iodide]: the “hTLR9 (inhibitory effect)” value was 12 (compounds for which there was clear down regulation at 5 μg/ml and 50 μg/ml).

`CN(C)CCN(Cc1ccc(Cl)cc1)c1ccccn1.Cl` [compound 807, Chloro-pyraminehydrochloride]: the “hTLR9 (inhibitory effect)” value is 12 (compounds for which there was clear down regulation at 5 μg/ml and 50 μg/ml).

Turning to `CCOc1ccc(Cc2nccc3cc(OCC)c(OCC)cc23)cc1OCC.Cl` [compound 830, Ethaverinehydrochloride], the “hTLR9 (inhibitory effect)” value is recorded as 11 (compounds for which there was clear down regulation only at 50 μg/ml).

Turning to `O=c1c2c(nc(NCCO)n1-c1ccccc1)-c1ccccc1CC21CCCC1` [compound 891], the “hTLR9 (inhibitory effect)” value was 11 (compounds for which there was clear down regulation only at 50 μg/ml).

Consider `O=c1c2c(nc(NCCO)n1Cc1ccccc1)-c1ccccc1CC21CCCC1` [compound 926], for which the “hTLR9 (inhibitory effect)” value is recorded as 11 (compounds for which there was clear down regulation only at 50 μg/ml).

As to `CN1CCc2c1nc1ccccc1c2N` [compound 990, 1-Methyl-2,3-dihydro-1H-pyrrolo[2,3-b]quinolin-4-ylamine], the “hTLR9 (inhibitory effect)” value was 13 (compounds for which there was clear down regulation at 0.5 μg/ml, 5 μg/ml, and 50 μg/ml).

For `CN1CCc2c1nc1ccccc1c2NC(=O)CN1CCCCCC1` [compound 1003], the “hTLR9 (inhibitory effect)” value was 13 (compounds for which there was clear down regulation at 0.5 μg/ml, 5 μg/ml, and 50 μg/ml).

On to `Cc1ccc2nc3c(c(N)c2c1)CCN3C` [compound 1091, 1,6-Dimethyl-2,3-dihydro-1H-pyrrolo[2,3-b]quinolin-4-ylamine], for which the “hTLR9 (inhibitory effect)” value is 13 (compounds for which there was clear down regulation at 0.5 μg/ml, 5 μg/ml, and 50 μg/ml).

On to `Cc1ccc(-n2c(NCCO)nc3c(c2=O)C2(CCCCC2)Cc2ccccc2-3)cc1` [compound 1137], for which the “hTLR9 (inhibitory effect)” value is 11 (compounds for which there was clear down regulation only at 50 μg/ml).

`CN1CCc2c1nc1ccc(Br)cc1c2N` [compound 1142, 6-Bromo-1-methyl-2,3-dihydro-1H-pyrrolo[2,3-b]quinolin-4-ylamine]: the “hTLR9 (inhibitory effect)” value is 13 (compounds for which there was clear down regulation at 0.5 μg/ml, 5 μg/ml, and 50 μg/ml).

In the case of `O=C1c2ccc(S(=O)(=O)c3ccc4c(c3)C(=O)N(c3ccccn3)C4=O)cc2C(=O)N1c1ccccn1` [compound 1163], the “hTLR9 (inhibitory effect)” value was 11 (compounds for which there was clear down regulation only at 50 μg/ml).

For the compound `CN1CCCCc2c1nc1ccccc1c2N` [compound 1185, 1-Methyl-2,3,4,5-tetrahydro-1H-azepino[2,3-b]quinolin-6-ylamine], the “hTLR9 (inhibitory effect)” value is 13 (compounds for which there was clear down regulation at 0.5 μg/ml, 5 μg/ml, and 50 μg/ml).

For `CN1CCc2c1nc1ccccc1c2NC(=O)CN1CCN(c2ccccc2)CC1` [compound 1212], the “hTLR9 (inhibitory effect)” value is 12 (compounds for which there was clear down regulation at 5 μg/ml and 50 μg/ml).

Turning to `Cn1c(NN)nc2c(c1=O)C1(CCCC1)Cc1ccccc1-2` [compound 1213], the “hTLR9 (inhibitory effect)” value is reported as “— (compounds for which there was no clear down regulation even at 50 μg/ml)”.

`Nc1c2c(nc3ccccc13)N(Cc1ccccc1)CC2` [compound 1217, 1-Benzyl-2,3-dihydro-1H-pyrrolo[2,3-b]quinolin-4-ylamine]: the “hTLR9 (inhibitory effect)” value is 13 (compounds for which there was clear down regulation at 0.5 μg/ml, 5 μg/ml, and 50 μg/ml).

Regarding `CCCCCCN(CCCCCC)CC(=O)Nc1c2c(nc3ccccc13)N(C)CC2` [compound 1224], the “hTLR9 (inhibitory effect)” value is recorded as 11 (compounds for which there was clear down regulation only at 50 μg/ml).

Consider `O=C(CN1CCCC1)Nc1c2c(nc3ccccc13)N(c1ccccc1)CC2` [compound 1244], for which the “hTLR9 (inhibitory effect)” value was 12 (compounds for which there was clear down regulation at 5 μg/ml and 50 μg/ml).

Turning to `NNc1nc2c(c(=O)n1C1CCCC1)C1(CCCC1)Cc1ccccc1-2` [compound 1248], the “hTLR9 (inhibitory effect)” value was “— (compounds for which there was no clear down regulation even at 50 μg/ml)”.

As to `NNc1nc2c(c(=O)n1-c1ccccc1)C1(CCCC1)Cc1ccccc1-2` [compound 1320], the “hTLR9 (inhibitory effect)” value was 13 (compounds for which there was clear down regulation at 0.5 μg/ml, 5 μg/ml, and 50 μg/ml).

On to `O=c1[nH]c(NCCO)nc2c1C1(CCCC1)Cc1ccccc1-2` [compound 1322], for which the “hTLR9 (inhibitory effect)” value was “— (compounds for which there was no clear down regulation even at 50 μg/ml)”.

As to `CCCCCCCCCCCC(=O)Nc1c2c(nc3ccccc13)N(C)CC2` [compound 1334], the “hTLR9 (inhibitory effect)” value is reported as 11 (compounds for which there was clear down regulation only at 50 μg/ml).

Turning to `O=C1c2ccc(Oc3ccc(S(=O)(=O)c4ccc(Oc5ccc6c(c5)C(=O)N(c5ccccn5)C6=O)cc4)cc3)cc2C(=O)N1c1ccccn1` [compound 1367], the “hTLR9 (inhibitory effect)” value was “— (compounds for which there was no clear down regulation even at 50 μg/ml)”.
